From patent US20170044121A1, “TETRA-O-SUBSTITUTED BUTANE-BRIDGE MODIFIED NDGA DERIVATIVES, THEIR SYNTHESIS AND PHARMAECUTICAL USE” (Erimos Pharmaceuticals LLC, priority 2006, published 2017)
Where a name gives a salt, the structure may show the parent alone. Read-outs that look alike come from different tables or passages of the source.

Key:
[1] = tested on: H-69 small cell lung cancer cells; details: cited from earlier work
[2] = tested on: A549 (lung carcinoma); test: MTS cell viability assay, A549; format: cell-based
[3] = tested on: HeLa (cervical adenocarcinoma); test: MTS cell viability assay, HeLa; format: cell-based; details: Homo sapiens, HeLa, read-out: HeLa IC50
[4] = tested on: TAT transactivation of the HIV-1 LTR promoter (TAT-TRS); test: cells; format: cell-based; details: Human immunodeficiency virus 1, COS-7, 48 h, read-out: SEAP EC50
[5] = tested on: COS-7 cells; test: MTT cytotoxicity in COS-7 cells (run with SEAP); format: cell-based, green monkey; details: Chlorocebus sabaeus
[6] = tested on: MCP-1; test: MCP-1 protein production in TNF-α-treated primary human keratinocytes; format: cell-based; details: Keratinocyte, read-out: MCP-1 IC50
[7] = tested on: CNS cell line panel (5 cell lines); test: cells; details: Homo sapiens, 48 h, read-out: LC50
[8] = tested on: Melanoma cell line panel (8 cell lines); test: cells; details: Homo sapiens, 48 h, read-out: LC50
[9] = tested on: Breast Cancer cell line panel (8 cell lines); details: Breast Cancer (8 cell lines), 48 hours, SRB
[10] = tested on: Ovarian Cancer cell line panel (6 cell lines); test: cells; details: Homo sapiens, 48 h, read-out: LC50
[11] = tested on: Colon Cancer cell line panel (6 cell lines); details: Colon Cancer (6 cell lines), 48 hours, SRB
[12] = tested on: Prostate cell line panel (1 cell line); details: Prostate (1 cell line), 48 hours, SRB
[13] = tested on: Renal Cancer cell line panel (8 cell lines); test: cells; details: Homo sapiens, 48 h, read-out: LC50
[14] = tested on: NSCLC cell line panel (9 cell lines); test: cells; details: Homo sapiens, 48 h, read-out: LC50
[15] = tested on: CNS cell line panel (5 cell lines); details: CNS (5 cell lines), 48 hours, SRB
[16] = in vitro; details: human
[17] = tested on: Leukemia cell line panel (6 cell lines); details: Leukemia (6 cell lines), 48 hours, SRB
[18] = tested on: Prostate cell line panel (1 cell line); test: cells; details: Homo sapiens, 48 h, read-out: LC50
[19] = tested on: Colon Cancer cell line panel (6 cell lines); test: cells; details: Homo sapiens, 48 h, read-out: LC50
[20] = tested on: apoptosis in cultured cells (DNA fragmentation); test: TiterTACS DNA fragmentation apoptosis assay; format: cell-based; details: TiterTACS apoptosis detection
[21] = tested on: NSCLC cell line panel (9 cell lines); details: NSCLC (9 cell lines), 48 hours, SRB
[22] = tested on: Ovarian Cancer cell line panel (6 cell lines); details: Ovarian Cancer (6 cell lines), 48 hours, SRB
[23] = tested on: VEGF; test: ELISA VEGF assay (DFO-induced hypoxia); format: cell-based; details: Homo sapiens, read-out: VEGF IC50
[24] = tested on: Leukemia cell line panel (6 cell lines); test: cells; details: Homo sapiens, 48 h, read-out: LC50
[25] = tested on: Caco-2 cell monolayers
[26] = Non-specific binding to 24-well assay plate without cells; details: single well of a 24-well assay plate without cells
[27] = tested on: Renal Cancer cell line panel (8 cell lines); details: Renal Cancer (8 cell lines), 48 hours, SRB
[28] = tested on: Breast Cancer cell line panel (8 cell lines); test: cells; details: Homo sapiens, 48 h, read-out: LC50
[29] = tested on: Melanoma cell line panel (8 cell lines); details: Melanoma (8 cell lines), 48 hours, SRB
[30] = tested on: Caco-2 cell monolayers; test: Caco-2 monolayer permeability study
[31] = Caco-2 monolayer permeability study; details: human
[32] = in vitro
[33] = tested on: survivin; test: ELISA survivin assay (cell lysates); format: cell-based; details: Homo sapiens, survivin protein in cell lysates
[34] = Homo sapiens, A549, read-out: A549 IC50
[35] = MTT assay, COS-7 test cells of the SEAP assay, read-out: COS-7 IC50
[36] = TNF-α-treated PHK, MCP-1 protein production, ELISA
[37] = human, Caco-2, 90 min, 1 μM, pH 7.4
[38] = Caco-2, nominal conc. 20 μM, 90 minutes, duplicate monolayers

Structure (SMILES): Oc1ccc(CCCCc2ccc(O)c(O)c2)cc1O [Compound B, 1,4-bis-(3,4-hydroxyphenyl) butane]
- potency relative to NDGA as proliferative inhibitor [1]: 10 times
- melting point: 140 to 142 °C

Structure (SMILES): Cc1nc(COc2ccc(CCCCc3ccc(OCc4csc(C)n4)c(OCc4csc(C)n4)c3)cc2OCc2csc(C)n2)cs1 [Compound G, 1,4-bis{3,4-bis(2-methyl-thiazol-4-yl-methoxy)phenyl}-butane tetrakis-hydrochloride salt]
- IC50 [2, 34]: > 100 µM
- IC50 [3]: > 100 µM

Structure (SMILES): CCOc1ccc(CCCCc2ccc(OCC)c(OCC)c2)cc1OCC [Compound C, 1,4-bis-(3,4-ethoxyphenyl) butane]
- IC50 ([2]; Homo sapiens, A549, MTS assay, read-out: A549 IC50): > 100 µM
- IC50 ([3]; MTS assay): > 100 µM
- EC50 [4]: > 100 µM
- IC50 [5, 35]: > 100 µM
- IC50 [6, 36]: > 100 µM
- melting point: 113 to 115 °C

Structure (SMILES): c1cc(OCCCN2CCCCC2)c(OCCCN2CCCCC2)cc1CCCCc1ccc(OCCCN2CCCCC2)c(OCCCN2CCCCC2)c1 [Compound D, 1,4-bis{3,4-bis[3-(piperidin-1-yl)propoxy]phenyl}-butane]
- CC50 [7]: 11 µM
- CC50 [8]: 15.9 µM
- Mean Growth Percent at 10 μM ([9]; 10 μM): 59.72%
- TGI [9]: 2.11E−5
- CC50 [10]: 35.3 µM
- Mean Growth Percent at 10 μM ([11]; 10 μM): 40.49%
- TGI [11]: 6.45E−6
- IC50 ([2]; MTS assay, read-out: A549 IC50): 1 to 2 µM
- IC50 ([3]; MTS assay): 5 to 6 µM
- Mean Growth Percent at 10 μM ([12]; 10 μM): 2.84%
- TGI [12]: 2.76E−5
- CC50 [13]: 37 µM
- CC50 [14]: 28.4 µM
- Mean Growth Percent at 10 μM ([15]; 10 μM): 78.88%
- TGI [15]: 4.13E−6
- Papp A→B at 90 min, 1 μM ([16]; Caco-2, pH 7.4, Papp A to B): 13.8 ×10⁻⁶ cm/s
- Papp B→A at 90 min, 1 μM ([16]; Caco-2, pH 7.4, Papp B to A): 2.35 ×10⁻⁶ cm/s
- efflux ratio at 90 min, 1 μM ([16]; Caco-2, pH 7.4, Polarization Ratio [B-A/A-B]): 0.1 to 0.2
- Mean Growth Percent at 10 μM ([17]; 10 μM): 12.31%
- TGI [17]: 4.28E−6
- CC50 [18]: 53.9 µM
- CC50 [19]: 22.8 µM
- DNA fragmentation [20]: Positive
- Mean Growth Percent at 10 μM ([21]; 10 μM): 62.77%
- TGI [21]: 7.31E−6
- EC50 [4]: 0.7 to 0.8 µM
- Mean Growth Percent at 10 μM ([22]; 10 μM): 66.18%
- TGI [22]: 1.46E−5
- IC50 [5, 35]: 0.8 to 0.9 µM
- IC50 ([23]; VEGF released into media, ELISA): ~4 µM
- CC50 [24]: 13.4 µM
- BCS permeability class ([25]; Caco-2): moderate-to-high
- Papp A to B [25, 37]: 14 ×10⁻⁶ cm/s
- Papp B to A [25, 37]: 2.51 ×10⁻⁶ cm/s
- Polarization Ratio [B-A/A-B] [25, 37]: 0.18
- recovery at 90 min, 1 μM [26]: 35%
- Mean Growth Percent at 10 μM ([27]; 10 μM): 82.54%
- TGI [27]: 1.70E−5
- CC50 [28]: 30.8 µM
- Mean Growth Percent at 10 μM ([29]; 10 μM): 16.46%
- TGI [29]: 7.74E−6
- IC50 [6, 36]: 3 µM

Structure (SMILES): C[C@H]1O[C@@H](O[C@H]2[C@@H](O)C[C@H](O[C@H]3[C@@H](O)C[C@H](O[C@H]4CC[C@@]5(C)[C@H](CC[C@@H]6[C@@H]5C[C@@H](O)[C@]5(C)[C@@H](C7=CC(=O)OC7)CC[C@]65O)C4)O[C@@H]3C)O[C@@H]2C)C[C@H](O)[C@@H]1O [digoxin, reference compound]
- Mass balance mean A to B ([30]; Caco-2, 5 μM, 90 minutes): 73%
- Mass balance mean B to A ([30]; Caco-2, 5 μM, 90 minutes): 79%
- Polarization Ratio mean (B-A/A-B) ([30]; Caco-2, 5 μM, 90 minutes): 5.4
- Papp mean B to A ([30]; Caco-2, 5 μM, 90 minutes, pH 7.4): 12.4 ×10⁻⁶ cm/s
- Papp A→B at 90 min, 5 μM ([31]; Caco-2, pH 7.4, Papp mean A to B, Caco-2, 5 μM, 90 minutes, pH 7.4): 2.28 ×10⁻⁶ cm/s

Structure (SMILES): CN(C)CCOc1ccc(CCCCc2ccc(OCCN(C)C)c(OCCN(C)C)c2)cc1OCCN(C)C [Compound H, 1,4-bis{3,4-bis(2-(N,N′-dimethylamino)-ethoxy)phenyl}-butane]
- IC50 [2, 34]: 20 to 40 µM
- IC50 [3]: 20 to 30 µM
- recovery at 90 min, 20 μM [32]: 96%
- Polarization Ratio [B-A/A-B] ([30]; Caco-2, nominal conc. 20 μM): 0.15
- Papp A to B [30, 38]: 64.4 ×10⁻⁶ cm/s
- Papp B to A [30, 38]: 10.1 ×10⁻⁶ cm/s
- Mass Balance A to B ([30]; Caco-2, nominal conc. 20 μM, recovery from apical and basolateral chambers, duplicates): ≧100%
- Papp B→A at 90 min, 20 μM ([31]; Caco-2, pH 7.4): 10.1 ×10⁻⁶ cm/s
- Papp A→B at 90 min ([31]; Caco-2, pH 7.4, BCS permeability class, from A-B Papp in Caco-2 versus mannitol and propranolol): > 14.2 ×10⁻⁶ cm/s
- Papp A→B at 90 min, 20 μM ([31]; Caco-2, pH 7.4, Papp A to B, Caco-2, nominal conc. 20 μM, 90 minutes, duplicate monolayers): 66.7 ×10⁻⁶ cm/s
- efflux ratio at 90 min, 20 μM ([31]; Caco-2, pH 7.4, Polarization Ratio [B-A/A-B], Caco-2, nominal conc. 20 μM): 0.1 to 0.2
- DNA fragmentation [20]: Positive
- EC50 [4]: 30 to 40 µM
- IC50 ([5]; COS-7, read-out: COS-7 IC50): 20 to 30 µM
- IC50 [23]: > 60 µM
- IC50 [33]: ~25 µM
- IC50 [6]: 75 µM
- melting point: 65 to 67 °C
